Test results from article PMC6004018, “Dual-functional peptide with defective interfering genes effectively protects mice against avian and seasonal influenza” (Nature Communications, 2018).
Converted amounts (≈) assume the structure as drawn. Where two headings read alike, the source gives them in different places. Residues, ends and D or L forms follow the SMILES beside them.

What was measured:
MDCK cells = assay: MTT cytotoxicity assay in MDCK cells; details: 24 h incubation at 37 °C, DMEM with 1% FBS, three independent experiments
293T cells [1] = assay: MTT cytotoxicity assay in 293T cells; details: 24 h incubation at 37 °C, DMEM with 1% FBS, three independent experiments
endosomal acidification = details: cited from earlier work
[2] = tested on: endosomal acidification in MDCK cells; assay: Endosomal acidification analysis in live cells; type: cell-based, canine; details: pHrodo Red dextran, P1 25.0 μg ml-1, TAT-P1 3.1 μg ml-1, bafilomycin A1 100.0 nM, PA1 25.0 μg ml-1
A(H1N1)pdm09 virus [3] = type: cell-based
A(H7N7) virus [4] = details: 1 h, pH 7.4
[5] = molecular target: viral HA protein (H1N1 glycoprotein HA1) (Influenza A virus, UniProt C3W5S1); details: ELISA (peptide 0.1 μg per well, HA1 2 μg ml-1) and western blot (peptide 1 μg)
Sequence of viral HA protein (H1N1 glycoprotein HA1) (C3W5S1 18-344 limits assumed): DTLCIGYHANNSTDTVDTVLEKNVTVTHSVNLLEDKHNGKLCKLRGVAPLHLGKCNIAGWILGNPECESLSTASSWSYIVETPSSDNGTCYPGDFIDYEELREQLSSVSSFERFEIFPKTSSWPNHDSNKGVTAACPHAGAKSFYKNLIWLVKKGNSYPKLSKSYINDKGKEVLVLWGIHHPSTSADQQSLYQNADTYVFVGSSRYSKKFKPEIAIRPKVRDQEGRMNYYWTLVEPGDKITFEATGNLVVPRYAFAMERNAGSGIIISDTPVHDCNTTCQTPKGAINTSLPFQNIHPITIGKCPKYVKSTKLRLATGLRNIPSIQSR

[6] = tested on: HA-mediated membrane fusion (H7N7 HA in 293T cells); details: pH 5
293T cells [7] = tested on: 293T cells
A(H7N7) virus [8] = tested on: A(H7N7) virus; design: species or system BALB/c female mice; details: mouse, in vivo
A(H1N1)pdm09 virus [9] = details: 1 h, pH 7.4
A(H1N1)pdm09 virus [10] = tested on: A(H1N1)pdm09 virus; design: species or system BALB/c female mice; details: in vivo
A(H1N1)pdm09 virus [11] = tested on: A(H1N1)pdm09 virus; design: species or system BALB/c female mice; details: mouse, in vivo
A(H7N7) virus [12] = type: cell-based

**Q.** With `N=C(N)NCCC[C@H](NC(=O)[C@H](CCCNC(=N)N)NC(=O)[C@H](CCCNC(=N)N)NC(=O)[C@H](CCC(N)=O)NC(=O)[C@H](CCCNC(=N)N)NC(=O)[C@H](CCCNC(=N)N)NC(=O)[C@H](CCCCN)NC(=O)[C@H](CCCCN)NC(=O)[C@H](CCCNC(=N)N)NC(=O)CNC(=O)[C@@H](N)Cc1ccc(O)cc1)C(=O)O` [TAT, reference compound] as the compound, how does the “CC50 (MDCK)” value (MDCK cells) read?
**A.** > 400 µg/mL

**Q.** What about the “CC50 (293T)” value (293T cells [1]) of the same compound?
**A.** > 400 µg/mL

**Q.** With `CCN(CC)CCCC(C)Nc1ccnc2cc(Cl)ccc12` (centres unmarked) [chloroquine] as the compound, how does the “effective concentrations for inhibiting endosomal acidification” value (endosomal acidification) read?
**A.** ~ 100 μM

**Q.** What does the source list for `CC[C@H](C)[C@H](NC(=O)[C@H](CCC(N)=O)NC(=O)[C@H](CCCNC(=N)N)NC(=O)[C@H](Cc1ccccc1)NC(=O)[C@H](C)NC(=O)[C@@H](NC(=O)[C@@H]1CCCN1C(=O)[C@H](CS)NC(=O)[C@@H]1CCCN1C(=O)CNC(=O)[C@H](Cc1c[nH]c2ccccc12)NC(=O)[C@@H](N)CS)[C@@H](C)O)C(=O)NCC(=O)N[C@@H](CC(N)=O)C(=O)N[C@@H](CS)C(=O)NCC(=O)N[C@@H](CCCNC(=N)N)C(=O)N[C@@H](Cc1ccccc1)C(=O)N[C@@H](CCCNC(=N)N)C(=O)N[C@H](C(=O)N[C@@H](CCCNC(=N)N)C(=O)N[C@@H](CS)C(=O)N[C@@H](CS)C(=O)N[C@@H](CCCNC(=N)N)C(=O)N[C@H](C(=O)N[C@@H](CCCNC(=N)N)C(=O)O)[C@@H](C)CC)C(C)C` [P1] (H-CWGPCPTAFRQIGNCGRFRVRCCRIR-OH)?
**A.** prevention of endosomal acidification [2]: prevented endosomal acidification; block of viral RNP release into the nuclei (A(H1N1)pdm09 virus [3]): blocked viral RNP release into the nuclei; IC50 (H7N7) (A(H7N7) virus [4]): 1.56 µg/mL (≈ 0.51 µM); binding to viral HA protein [5]: bind to viral HA protein; inhibition of HA-mediated membrane fusion [6]: did not inhibit HA-mediated membrane fusion; concentration that significantly enhances the transfection efficiency of plasmid DNA (293T cells [7]): 12.5; inhibition of viral replication in 293T cells (H7N7 virus): significantly inhibit viral replication; CC50 (MDCK) (MDCK cells): > 400 µg/mL; CC50 (293T) (293T cells [1]): > 400 µg/mL

**Q.** What does the source list for `CO/C1=C\C(C)=C\[C@@H](C)[C@@H](O)[C@@H](C)C/C(C)=C/C=C/[C@H](OC)[C@@H]([C@@H](C)[C@@H](O)[C@H](C)[C@@]2(O)C[C@@H](O)[C@H](C)[C@@H](C(C)C)O2)OC1=O` [Bafilomycin A1, reference compound]?
**A.** prevention of endosomal acidification [2]: prevented endosomal acidification; block of viral RNP release into the nuclei (A(H1N1)pdm09 virus [3]): blocked viral RNP release into the nuclei

**Q.** Which survival (A(H7N7) virus [8]) does the source give for `CC[C@H](C)[C@H](NC(=O)[C@H](CCC(N)=O)NC(=O)[C@H](CCCNC(=N)N)NC(=O)[C@H](Cc1ccccc1)NC(=O)[C@H](C)NC(=O)[C@@H](NC(=O)[C@@H]1CCCN1C(=O)[C@H](CS)NC(=O)[C@@H]1CCCN1C(=O)CNC(=O)[C@H](Cc1c[nH]c2ccccc12)NC(=O)[C@H](CS)NC(=O)[C@H](CCCNC(=N)N)NC(=O)[C@H](CCCNC(=N)N)NC(=O)[C@H](CCCNC(=N)N)NC(=O)[C@H](CCC(N)=O)NC(=O)[C@H](CCCNC(=N)N)NC(=O)[C@H](CCCNC(=N)N)NC(=O)[C@H](CCCCN)NC(=O)[C@H](CCCCN)NC(=O)[C@H](CCCNC(=N)N)NC(=O)CNC(=O)[C@@H](N)Cc1ccc(O)cc1)[C@@H](C)O)C(=O)NCC(=O)N[C@@H](CC(N)=O)C(=O)N[C@@H](CS)C(=O)NCC(=O)N[C@@H](CCCNC(=N)N)C(=O)N[C@@H](Cc1ccccc1)C(=O)N[C@@H](CCCNC(=N)N)C(=O)N[C@H](C(=O)N[C@@H](CCCNC(=N)N)C(=O)N[C@@H](CS)C(=O)N[C@@H](CS)C(=O)N[C@@H](CCCNC(=N)N)C(=O)N[C@H](C(=O)N[C@@H](CCCNC(=N)N)C(=O)O)[C@@H](C)CC)C(C)C` [TAT-P1] (H-YGRKKRRQRRRCWGPCPTAFRQIGNCGRFRVRCCRIR-OH) here?
**A.** 30%

**Q.** What about the “prevention of endosomal acidification” value [2] of the same compound?
**A.** prevented endosomal acidification

**Q.** What about the “block of viral RNP release into the nuclei” value (A(H1N1)pdm09 virus [3]) of the same compound?
**A.** blocked viral RNP release into the nuclei

**Q.** And the “IC50 (H7N7)” value (A(H7N7) virus [4])?
**A.** 0.56 µg/mL (≈ 0.122 µM)

**Q.** And the “IC50 (H1N1)” value (A(H1N1)pdm09 virus [9])?
**A.** 0.67 µg/mL (≈ 0.146 µM)

**Q.** What about the “binding to viral HA protein” value [5] of the same compound?
**A.** bind to viral HA protein

**Q.** And the “inhibition of HA-mediated membrane fusion” value [6]?
**A.** did not inhibit HA-mediated membrane fusion

**Q.** What about the “weight ratio (peptide:DNA) at which complexes with DNA form” value (plasmid DNA) of the same compound?
**A.** > 2

**Q.** What about the “inhibition of viral replication in 293T cells” value (H7N7 virus) of the same compound?
**A.** significantly inhibit viral replication

**Q.** For `CC[C@H](C)[C@H](NC(=O)[C@H](CCCNC(=N)N)NC(=O)[C@H](CS)NC(=O)[C@H](CS)NC(=O)[C@H](CCCNC(=N)N)NC(=O)[C@@H](NC(=O)[C@H](CCCNC(=N)N)NC(=O)[C@H](Cc1ccccc1)NC(=O)[C@H](CCCNC(=N)N)NC(=O)CNC(=O)[C@H](CS)NC(=O)[C@H](CC(N)=O)NC(=O)[C@H](CCCNC(=N)N)NC(=O)[C@H](CCCCN)NC(=O)[C@H](CCCNC(=N)N)NC(=O)[C@H](Cc1ccccc1)NC(=O)[C@H](C)NC(=O)[C@H](CCCNC(=N)N)NC(=O)[C@@H]1CCCN1C(=O)[C@H](CS)NC(=O)[C@@H]1CCCN1C(=O)[C@H](CCCNC(=N)N)NC(=O)[C@H](Cc1c[nH]c2ccccc12)NC(=O)[C@H](CS)NC(=O)[C@H](CCCNC(=N)N)NC(=O)[C@H](CCCNC(=N)N)NC(=O)[C@H](CCCNC(=N)N)NC(=O)[C@H](CCC(N)=O)NC(=O)[C@H](CCCNC(=N)N)NC(=O)[C@H](CCCNC(=N)N)NC(=O)[C@H](CCCCN)NC(=O)[C@H](CCCCN)NC(=O)[C@H](CCCNC(=N)N)NC(=O)CNC(=O)[C@@H](N)Cc1ccc(O)cc1)[C@@H](C)CC)C(=O)N[C@@H](CCCNC(=N)N)C(=O)O` [TAT-P2] (H-YGRKKRRQRRRCWRPCPRAFRKRNCGRFRIRCCRIR-OH; N-terminus and C-terminus assumed), which “IC50 (H7N7)” value (A(H7N7) virus [4]) is on record?
**A.** 0.97 µg/mL (≈ 0.204 µM)

**Q.** And the “IC50 (H1N1)” value (A(H1N1)pdm09 virus [9])?
**A.** 0.76 µg/mL (≈ 0.16 µM)

**Q.** With `CC[C@H](C)[C@H](NC(=O)[C@H](CCCNC(=N)N)NC(=O)[C@H](CS)NC(=O)[C@H](CCCNC(=N)N)NC(=O)[C@@H](NC(=O)[C@H](CCCNC(=N)N)NC(=O)[C@H](Cc1ccccc1)NC(=O)[C@H](CCCNC(=N)N)NC(=O)CNC(=O)[C@H](CS)NC(=O)[C@H](CC(C)C)NC(=O)[C@H](CCC(N)=O)NC(=O)[C@H](CCCNC(=N)N)NC(=O)[C@H](Cc1ccccc1)NC(=O)[C@H](CO)NC(=O)[C@@H]1CCCN1C(=O)[C@H](CS)NC(=O)[C@@H]1CCCN1C(=O)[C@H](CCCNC(=N)N)NC(=O)[C@H](Cc1c[nH]c2ccccc12)NC(=O)[C@H](CS)NC(=O)[C@H](CCCNC(=N)N)NC(=O)[C@H](CCCNC(=N)N)NC(=O)[C@H](CCCNC(=N)N)NC(=O)[C@H](CCC(N)=O)NC(=O)[C@H](CCCNC(=N)N)NC(=O)[C@H](CCCNC(=N)N)NC(=O)[C@H](CCCCN)NC(=O)[C@H](CCCCN)NC(=O)[C@H](CCCNC(=N)N)NC(=O)CNC(=O)[C@@H](N)Cc1ccc(O)cc1)[C@@H](C)CC)C(=O)N[C@@H](CCCNC(=N)N)C(=O)O` [TAT-P3] (H-YGRKKRRQRRRCWRPCPSFRQLCGRFRIRCRIR-OH; N-terminus and C-terminus assumed) as the compound, how does the “IC50 (H7N7)” value (A(H7N7) virus [4]) read?
**A.** 0.78 µg/mL (≈ 0.179 µM)

**Q.** And the “IC50 (H1N1)” value (A(H1N1)pdm09 virus [9])?
**A.** 0.68 µg/mL (≈ 0.156 µM)

**Q.** Which results are given for `CC(=O)N[C@H]1[C@H]([C@H](O)[C@H](O)CO)OC(C(=O)O)=C[C@@H]1N=C(N)N` [zanamivir]?
**A.** body weight loss (A(H7N7) virus [8]): significantly less body weight loss; survival (A(H7N7) virus [8]): 40%; viral titers / viral replication in mouse lungs (A(H1N1)pdm09 virus [10]): significantly reduced; IL-6 expression in mice (A(H1N1)pdm09 virus [10]; mouse): significantly reduced; body weight loss (A(H1N1)pdm09 virus [10]; mouse): significantly reduced; survival (A(H1N1)pdm09 virus [10]; mouse): 90%; survival (A(H1N1)pdm09 virus [11]): 90%; susceptibility of virus to zanamivir (A(H7N7) virus [12]): reduced susceptibility
